Read-outs that look alike come from different tables or passages of the source.
Experiments:
[1] = target: T1, SARS-CoV-2 nsp3-mac1 (Severe acute respiratory syndrome coronavirus 2, UniProt P0DTD1); assay: biochemical; design: SARS-CoV-2 nsp3 macrodomain TR-FRET single point, per cent inhibition, n=2
[2] = target: T1, SARS-CoV-2 nsp3-mac1; assay: biochemical; assay type: biochemical; conditions: SARS-CoV-2 nsp3 macrodomain TR-FRET single point, n=2
[3] = read-out: perc_inhibition_mean, batch_name=ASAP-0000258-001
[4] = read-out: perc_inhibition_mean, batch_name=ASAP-0000260-001
[5] = read-out: perc_inhibition_mean, batch_name=ASAP-0000261-001
[6] = read-out: perc_inhibition_mean, batch_name=ASAP-0000262-001
[7] = read-out: perc_inhibition_mean, batch_name=ASAP-0000263-001
[8] = read-out: perc_inhibition_mean, batch_name=ASAP-0000264-001
[9] = read-out: perc_inhibition_mean, batch_name=ASAP-0000265-001
[10] = read-out: perc_inhibition_mean, batch_name=ASAP-0000267-001
[11] = read-out: perc_inhibition_mean, batch_name=ASAP-0000268-001
[12] = read-out: perc_inhibition_mean, batch_name=ASAP-0000276-001
[13] = read-out: perc_inhibition_mean, batch_name=ASAP-0000277-001
[14] = read-out: perc_inhibition_mean, batch_name=ASAP-0000278-001
[15] = read-out: perc_inhibition_mean, batch_name=ASAP-0000279-001
[16] = read-out: perc_inhibition_mean, batch_name=ASAP-0000280-001
[17] = read-out: perc_inhibition_mean, batch_name=ASAP-0000281-001
[18] = read-out: perc_inhibition_mean, batch_name=ASAP-0000282-001
[19] = read-out: perc_inhibition_mean, batch_name=ASAP-0000283-001
[20] = read-out: perc_inhibition_mean, batch_name=ASAP-0000284-001

Row | Structure (SMILES) | perc_inhibition_mean ([2]; concentration 50.0 uM) [%] | perc_inhibition_mean ([2]; concentration 100.0 uM) [%] | perc_inhibition_mean ([2]; concentration 49.75 uM) [%] | perc_inhibition_mean ([2]; concentration 99.5 uM) [%] | other results
1 | O=c1[nH]cnc2[nH]cc(-c3ccoc3)c12 [ASAP-0000258] | -14.47 | -13.824 | – | – | inhibition at 50 µM [1, 3]: -14.5%; inhibition at 100 µM [1, 3]: -13.8%
2 | Oc1cc(CNc2ncnc3[nH]cnc23)ccn1 [ASAP-0000260] | -0.821 | -3.73 | – | – | inhibition at 50 µM [1, 4]: -0.821%; inhibition at 100 µM [1, 4]: -3.73%
3 | O=C(NCc1nc2cccnc2[nH]1)c1cnc2nc[nH]c(=O)c2c1 [ASAP-0000261] | -1.987 | 7.034 | – | – | inhibition at 50 µM [1, 5]: -1.99%; inhibition at 100 µM [1, 5]: 7.03%
4 | c1cc(CNc2ncnc3nc[nH]c23)n2ncnc2c1 [ASAP-0000262] | 1.353 | 10.036 | – | – | inhibition at 50 µM [1, 6]: 1.35%; inhibition at 100 µM [1, 6]: 10%
5 | Cc1[nH]c2ncnc(NCc3ccco3)c2c1C [ASAP-0000263] | 16.967 | 37.474 | – | – | inhibition at 50 µM [1, 7]: 17%; inhibition at 100 µM [1, 7]: 37.5%
6 | Cc1nc(NC(=O)c2nccc3ccncc23)c2cc[nH]c2n1 [ASAP-0000264] | -5.834 | 2.611 | – | – | inhibition at 50 µM [1, 8]: -5.83%; inhibition at 100 µM [1, 8]: 2.61%
7 | CCC(CC)(C(=O)Nc1nc(C)nc2[nH]ccc12)C(=O)OC(C)(C)C [ASAP-0000265] | -9.456 | -4.708 | – | – | inhibition at 50 µM [1, 9]: -9.46%; inhibition at 100 µM [1, 9]: -4.71%
8 | O=C(Nc1cnc2[nH]ncc2c1)c1cccc(-c2noc(C(F)(F)F)n2)c1 [ASAP-0000267] | -0.675 | -1.621 | – | – | inhibition at 50 µM [1, 10]: -0.675%; inhibition at 100 µM [1, 10]: -1.62%
9 | Cc1nc(NC(=O)c2ccnn2C(C)C)c2cc[nH]c2n1 [ASAP-0000268] | -2.642 | -4.346 | – | – | inhibition at 50 µM [1, 11]: -2.64%; inhibition at 100 µM [1, 11]: -4.35%
10 | COC(=O)[C@]1(F)CCN(C(=O)c2ccc(NC(=O)Nc3ccccc3)cc2)C1 [ASAP-0000276] | – | – | -0.893 | 0.834 | inhibition at 49.75 µM [1, 12]: -0.893%; inhibition at 99.5 µM [1, 12]: 0.834%
11 | CN(Cc1cn(C)nn1)C(=O)c1cnn2ccc(C3CCN(C(=O)c4ccccc4)CC3)cc12 [ASAP-0000277] | – | – | 2.174 | 1.337 | inhibition at 49.75 µM [1, 13]: 2.17%; inhibition at 99.5 µM [1, 13]: 1.34%
12 | Cc1ncc(NCc2csc(-c3ccccn3)n2)cn1 [ASAP-0000278] | – | – | -5.23 | -4.487 | inhibition at 49.75 µM [1, 14]: -5.23%; inhibition at 99.5 µM [1, 14]: -4.49%
13 | FC(F)(F)c1nnc2n1CCN(c1ncnc3[nH]ccc13)C2 [ASAP-0000279] | – | – | -1.969 | -1.005 | inhibition at 49.75 µM [1, 15]: -1.97%; inhibition at 99.5 µM [1, 15]: -1%
14 | O=C(c1ccccc1)N1CCC(c2ccn3ncc(C(=O)N4CCc5nc[nH]c5C4)c3c2)CC1 [ASAP-0000280] | – | – | 11.216 | 20.268 | inhibition at 49.75 µM [1, 16]: 11.2%; inhibition at 99.5 µM [1, 16]: 20.3%
15 | Cc1c(-c2cnc3nc[nH]c(=O)c3c2)ccc2[nH]ncc12 [ASAP-0000281] | – | – | -3.121 | -4.364 | inhibition at 49.75 µM [1, 17]: -3.12%; inhibition at 99.5 µM [1, 17]: -4.36%
16 | O=C(NC1CCC(F)(F)CC1)c1ncnc2[nH]ccc12 [ASAP-0000282] | – | – | -3.47 | -5.78 | inhibition at 49.75 µM [1, 18]: -3.47%; inhibition at 99.5 µM [1, 18]: -5.78%
17 | Cc1n[nH]nc1C(=O)N1CCC(c2ccn3ncc(C(=O)N4CCCCC4)c3c2)CC1 [ASAP-0000283] | – | – | 29.33 | 45.786 | inhibition at 49.75 µM [1, 19]: 29.3%; inhibition at 99.5 µM [1, 19]: 45.8%
18 | Cc1nc(C(=O)N2CCC(c3ccn4ncc(C(=O)N5CCCCC5)c4c3)CC2)c(=O)[nH]c1C [ASAP-0000284] | – | – | 26.409 | 44.216 | inhibition at 49.75 µM [1, 20]: 26.4%; inhibition at 99.5 µM [1, 20]: 44.2%
